Experimental data: US5468742A, “8-vinyl- and 9-ethinyl-quinolone-carboxylic acids” (Bayer Aktiengesellschaft, priority 1991, dated 1995)
In brackets after ≈: the same amount, converted by molar mass. Read-outs that look alike come from different tables or passages of the source.

Tests used:
Assay in all cases: MIC, serial dilution on Iso-Sensitest agar
Format in all cases: cell-based
[1] = test system: Enterococcus faecalis 27101
Procedure: (§1) The minimum inhibitory concentrations (MIC) were determined on Iso-Sensitest agar (Oxoid) using the serial dilution method. For each test substance, a series of agar plates was prepared which contained concentrations of the active compound which decreased as the dilution was doubled. The agar plates were inoculated using a multipoint inoculator (Denley). The inocula used were overnight cultures of the pathogens which had previously been diluted to such an extent that each inoculation point contained approx. 10^4 colony-forming units. The inoculated agar plates were incubated at 37° C., and growth of the pathogens was determined after approx. 20 hours. The MIC value (μg/ml) indicates the lowest concentration of active compound where no growth was discernible to the naked eye.
(§2) The table below lists the MIC values of some of the compounds according to the invention compared with ciprofloxacin.

[2] = test system: Staphylococcus aureus 1756
Procedure: as §1, §2

[3] = test system: Acinetobacter calcoaceticus 14068
Procedure: as §1, §2

[4] = test system: Enterococcus faecalis 9790
Procedure: as §1, §2

E. coli Neumann = details: Escherichia coli
Procedure: as §1, §2

[5] = test system: Staphylococcus aureus ICB 25701
Procedure: as §1, §2

[6] = test system: Staphylococcus aureus 133
Procedure: as §1, §2

Micrococcus luteus 9341 = test system: Micrococcus luteus 9341
Procedure: as §1, §2

[7] = Enterococcus faecalis 27101, approx. 10^4 CFU per inoculation point, 37° C., approx. 20 hours, read-out: MIC
[8] = Staphylococcus aureus 1756, approx. 10^4 CFU per inoculation point, 37° C., approx. 20 hours, read-out: MIC
[9] = Acinetobacter calcoaceticus 14068, approx. 10^4 CFU per inoculation point, 37° C., approx. 20 hours, read-out: MIC
[10] = Enterococcus faecalis 9790, approx. 10^4 CFU per inoculation point, 37° C., approx. 20 hours, read-out: MIC
[11] = E. coli Neumann, approx. 10^4 CFU per inoculation point, 37° C., approx. 20 hours, read-out: MIC
[12] = ICB25701, Staphylococcus aureus ICB 25701, approx. 10^4 CFU per inoculation point, 37° C., approx. 20 hours, read-out: MIC
[13] = Staphylococcus aureus 133, approx. 10^4 CFU per inoculation point, 37° C., approx. 20 hours, read-out: MIC
[14] = Micrococcus luteus 9341, approx. 10^4 CFU per inoculation point, 37° C., approx. 20 hours, read-out: MIC

SMILES	MIC [1, 7]	MIC [2, 8]	MIC [3, 9]	MIC [4, 10]	MIC (E. coli Neumann; [11])	MIC [5, 12]	MIC [6, 13]	MIC (Micrococcus luteus 9341; [14])	MIC ([1]; Enterococcus faecalis, 27101, 20 h)	MIC ([2]; Staphylococcus aureus, 1756, 20 h)	MIC ([3]; Acinetobacter calcoaceticus, 14068, 20 h)	MIC ([4]; Enterococcus faecalis, 9790, 20 h)	MIC (E. coli Neumann; 20 h)	MIC ([5]; Staphylococcus aureus, ICB25701, 20 h)	MIC ([6]; Staphylococcus aureus, 133, 20 h)	MIC (Micrococcus luteus 9341; Micrococcus luteus, 9341, 20 h)
C#Cc1c(N2C[C@@H]3CCCN[C@@H]3C2)c(F)cc2c(=O)c(C(=O)O)cn(C3CC3)c12 (relative stereo) [Example 5, 1-cyclopropyl-7-(cis-2,8-diazabicyclo[4.3.0]non-8-yl)-8-ethinyl-6-fluoro-1,4-dihydro-4-oxo-3-quinolinecarboxylic acid]	0.13 µg/mL (≈ 0.329 µM)	0.03 µg/mL (≈ 0.0759 µM)	0.03 µg/mL (≈ 0.0759 µM)	0.13 µg/mL (≈ 0.329 µM)	0.02 µg/mL (≈ 0.0506 µM)	1 µg/mL (≈ 2.53 µM)	0.13 µg/mL (≈ 0.329 µM)	0.5 µg/mL (≈ 1.26 µM)								
O=C(O)c1cn(C2CC2)c2cc(N3CCNCC3)c(F)cc2c1=O [Ciprofloxacin, ciprofloxacin, reference compound]									0.5 µg/mL (≈ 1.51 µM)	0.25 µg/mL (≈ 0.754 µM)	0.25 µg/mL (≈ 0.754 µM)	0.5 µg/mL (≈ 1.51 µM)	0.02 µg/mL (≈ 0.0604 µM)	16 µg/mL (≈ 48.3 µM)	0.25 µg/mL (≈ 0.754 µM)	2 µg/mL (≈ 6.04 µM)
C#Cc1c(N2CCN(C)CC2)c(F)cc2c(=O)c(C(=O)O)cn(C3CC3)c12 [Example 1, 1-cyclopropyl-8-ethinyl-6-fluoro-1,4-dihydro-7-(4-methyl-1-piperazinyl)-4-oxo-3-quinolinecarboxylic acid]	0.25 µg/mL (≈ 0.677 µM)	0.13 µg/mL (≈ 0.352 µM)		0.25 µg/mL (≈ 0.677 µM)	0.02 µg/mL (≈ 0.0541 µM)	4 µg/mL (≈ 10.8 µM)	0.13 µg/mL (≈ 0.352 µM)									
C#Cc1c(N2CC3NCCOC3C2)c(F)cc2c(=O)c(C(=O)O)cn(C3CC3)c12 (centres unmarked) [Example 7, 1-cyclopropyl-8-ethinyl-6-fluoro-1,4-dihydro-7-(2-oxa-5,8-diazabicyclo[4.3.0]non-8-yl)-4-oxo-3-quinolinecarboxylic acid]	0.25 µg/mL (≈ 0.629 µM)	0.06 µg/mL (≈ 0.151 µM)	0.25 µg/mL (≈ 0.629 µM)	0.25 µg/mL (≈ 0.629 µM)	0.13 µg/mL (≈ 0.327 µM)	1 µg/mL (≈ 2.52 µM)	0.06 µg/mL (≈ 0.151 µM)	1 µg/mL (≈ 2.52 µM)								
CC#Cc1c(N2CC3NCCOC3C2)c(F)cc2c(=O)c(C(=O)O)cn(C3CC3)c12 (centres unmarked) [Example 8, 1-cyclopropyl-6-fluoro-1,4-dihydro-7-(2-oxa-5,8-diazabicyclo[4.3.0]non-8-yl)-4-oxo-8-(propin-1-yl)-3-quinolinecarboxylic acid]	0.5 µg/mL (≈ 1.22 µM)	0.13 µg/mL (≈ 0.316 µM)	0.5 µg/mL (≈ 1.22 µM)	1 µg/mL (≈ 2.43 µM)	0.25 µg/mL (≈ 0.608 µM)	4 µg/mL (≈ 9.72 µM)	0.13 µg/mL (≈ 0.316 µM)	2 µg/mL (≈ 4.86 µM)								
C#Cc1c(N2CC3CC=CC(NC)C3C2)c(F)cc2c(=O)c(C(=O)O)cn(C3CC3)c12 (centres unmarked) [Example 13, 1-cyclopropyl-8-ethinyl-6-fluoro-1,4-dihydro-7-(4-methylamino-1,3,3a,4,7,7a-hexahydroisoindol-2-yl)-4-oxo-3-quinolinecarboxylic acid]	0.13 µg/mL (≈ 0.308 µM)	0.06 µg/mL (≈ 0.142 µM)	0.13 µg/mL (≈ 0.308 µM)	0.13 µg/mL (≈ 0.308 µM)	0.13 µg/mL (≈ 0.308 µM)	0.25 µg/mL (≈ 0.593 µM)	0.06 µg/mL (≈ 0.142 µM)	0.25 µg/mL (≈ 0.593 µM)								
C=C(C)C#Cc1c(N2CCN(C)CC2)c(F)cc2c(=O)c(C(=O)O)cn(C3CC3)c12 [Example 14, 1-cyclopropyl-6-fluoro-1,4-dihydro-8-(3-methyl-but-3-en-1-inyl)-7-(4-methyl-1-piperazinyl)-4-oxo-3-quinolinecarboxylic acid]	1 µg/mL (≈ 2.44 µM)	0.02 µg/mL (≈ 0.0488 µM)	0.03 µg/mL (≈ 0.0733 µM)	1 µg/mL (≈ 2.44 µM)	0.02 µg/mL (≈ 0.0488 µM)	32 µg/mL (≈ 78.2 µM)	0.02 µg/mL (≈ 0.0488 µM)	8 µg/mL (≈ 19.5 µM)								
C=C(Cl)c1c(N2CCN(C)CC2)c(F)cc2c(=O)c(C(=O)O)cn(C3CC3)c12.Cl [Example 17, 8-(1-chlorovinyl)-1-cyclopropyl-6-fluoro-1,4-dihydro-7-(4-methyl-1-piperazinyl)-4-oxo-3-quinolinecarboxylic acid hydrochloride]	0.25 µg/mL	0.13 µg/mL	0.03 µg/mL	0.25 µg/mL	0.03 µg/mL	4 µg/mL	0.13 µg/mL	1 µg/mL								
